Data published in US20020137929A1, “1 - (3-heterocyclylphenyl) isothiourea, -isourea, -guanidine and -amidine herbicidal agents” (Intellectual Property Department, BASF Aktiengesellschaft, priority 1998, published 2002).

What was measured:
[1] = test system: GLXMAW (Soybean, Williams); experiment: Postemergence herbicidal evaluation; assay type: in vivo, Glycine max, (L.) Merr. cv Williams; conditions: postemergence
In short: (§1)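 Each compound, dispersed in an acetone/water mix (50/50) carrying 0.5% TWEEN 20, is nozzle-sprayed at 40 psi on approximately two-week-old seedlings at about 0.0156–0.500 kg/ha. Plants are assessed 4–5 weeks afterward on a 0–9 scale relative to control; duplicate tests are averaged.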

[2] = test system: CHEAL (Lambsquarters, Common); experiment: Postemergence herbicidal evaluation; assay type: in vivo, Chenopodium album; conditions: postemergence
In short: as §1

CYPSE (Flatsedge) [3] = experiment: Postemergence weed control under flooded paddy conditions; assay type: in vivo, Cyperus serotinus; conditions: postemergence weeds, rated 3 to 4 weeks after treatment
In short: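 Weeds 3 to 5 cm tall and rice seedlings at the 1.5 to 2.5 leaf stage were flooded, with water held 1.5 to 3 cm above the soil. Compounds in 50/50 v/v aqueous/acetone went into the flood water at about 0.0313 to 0.500 kg/ha. Visual 0-9 ratings versus control were made 3 to 4 weeks later.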

CYPIR (Rice Flatsedge) = experiment: Preemergence weed control under flooded paddy conditions; assay type: in vivo, Cyperus iria; conditions: rated 3-4 weeks after treatment
In short: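 Flooded-pot preemergence screen with silt loam and seeds in the upper 0.5 cm. Dose about 0.0313 to 0.500 kg/ha, delivered into flood water; visual 0-9 score after 3 to 4 weeks.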

SETVI (Foxtail, Green) = experiment: Postemergence herbicidal evaluation; assay type: in vivo, Setaria viridis; conditions: postemergence
In short: as §1

AMBEL (Ragweed, Common) = experiment: Postemergence herbicidal evaluation; assay type: in vivo, Ambrosia artemisifolia; conditions: postemergence
In short: as §1

ORYSAT (Rice, Tebonnet) = experiment: Postemergence herbicidal evaluation; assay type: in vivo, Oryza sativa, (L.) Tebonnet; conditions: postemergence
In short: as §1

[4] = test system: SAGPY (Arrowhead (Pygmaea)); experiment: Preemergence weed control under flooded paddy conditions; assay type: in vivo, Sagittaria pygmaea; conditions: rated 3-4 weeks after treatment
In short: (§2)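 Seeds or propagules sown in top 0.5 cm of silt loam soil, flooded 1.5 to 3 cm above surface throughout. Compound in 50/50 v/v aqueous/acetone pipetted into flood water at about 0.0313 to 0.500 kg/ha. Visual 0-9 rating versus control after three to four weeks in greenhouse.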

GALAP (Galium) [5] = experiment: Postemergence herbicidal evaluation; assay type: in vivo, Galium aparine; conditions: postemergence
In short: as §1

GALAP (Galium) [6] = experiment: Preemergence herbicidal evaluation; assay type: in vivo, Galium aparine; conditions: preemergence, rated 4-5 weeks after treatment, 0-9 scale
In short: (§3)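 Seeds were planted in potting soil in cups, then sprayed preemergence with the test compound in aqueous acetone at about 0.0156 to 0.500 kg per hectare. Cups were kept under greenhouse conditions and visually rated 4–5 weeks after treatment on a 0–9 scale against an untreated control.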

CASOB (Sicklepod) [7] = experiment: Preemergence herbicidal evaluation; assay type: in vivo, Cassia obtusifolia; conditions: preemergence, rated 4-5 weeks after treatment, 0-9 scale
In short: as §3

ZEAMX (Corn, Field) = experiment: Preemergence herbicidal evaluation; assay type: in vivo, Zea mays; conditions: preemergence, rated 4-5 weeks after treatment, 0-9 scale
In short: as §3

CASOB (Sicklepod) [8] = experiment: Postemergence herbicidal evaluation; assay type: in vivo, Cassia obtusifolia; conditions: postemergence
In short: as §1

ECHCG (Barnyardgrass) = experiment: Postemergence herbicidal evaluation; assay type: in vivo, Echinochloa crus-galli; conditions: postemergence
In short: as §1

CYPSE (Flatsedge) [9] = experiment: Preemergence weed control under flooded paddy conditions; assay type: in vivo, Cyperus serotinus; conditions: rated 3-4 weeks after treatment
In short: as §2

SMILES: CC(C)OC(=O)CC1SC(=Nc2cc(-n3c(=O)cc(C(F)(F)F)n(C)c3=O)c(F)cc2Cl)N(C)C1=O (stereo not drawn) [Compound 89, Isopropyl 2-{{2-chloro-5-[3,6-dihydro-3-methyl-2,6-dioxo-4-(trifluoromethyl)-1(2H)-pyrimidinyl]-4-fluorophenyl}imino}-3-methyl-4-oxo-5-thiazolidineacetate]
- GLXMAW herbicidal rating ([1]; rate 0.0158 kg/ha): 7.5
- GLXMAW herbicidal rating ([1]; rate 0.0313 kg/ha): 9.0
- GLXMAW herbicidal rating ([1]; rate 0.0625 kg/ha): 9.0
- GLXMAW herbicidal rating ([1]; rate 0.1250 kg/ha): 9.0
- CHEAL herbicidal rating ([2]; rate 0.0158 kg/ha): 4.0
- CHEAL herbicidal rating ([2]; rate 0.0313 kg/ha): 9.0
- CHEAL herbicidal rating ([2]; rate 0.0625 kg/ha): 9.0
- CHEAL herbicidal rating ([2]; rate 0.1250 kg/ha): 9.0
- Herbicidal rating CYPSE (CYPSE (Flatsedge) [3]; Rate 0.0313 kg/ha): 0.0
- Herbicidal rating CYPSE (CYPSE (Flatsedge) [3]; Rate 0.0625 kg/ha): 0.0
- Herbicidal rating CYPSE (CYPSE (Flatsedge) [3]; Rate 0.1250 kg/ha): 4.0
- Herbicidal rating CYPSE (CYPSE (Flatsedge) [3]; Rate 0.2500 kg/ha): 6.0
- CYPIR herbicidal effect rating (CYPIR (Rice Flatsedge); 0.0313 kg/ha): 0.0
- CYPIR herbicidal effect rating (CYPIR (Rice Flatsedge); 0.0625 kg/ha): 0.0
- CYPIR herbicidal effect rating (CYPIR (Rice Flatsedge); 0.1250 kg/ha): 2.0
- CYPIR herbicidal effect rating (CYPIR (Rice Flatsedge); 0.2500 kg/ha): 4.0
- SETVI herbicidal rating (SETVI (Foxtail, Green); rate 0.0158 kg/ha): 7.0
- SETVI herbicidal rating (SETVI (Foxtail, Green); rate 0.0313 kg/ha): 9.0
- SETVI herbicidal rating (SETVI (Foxtail, Green); rate 0.0625 kg/ha): 9.0
- SETVI herbicidal rating (SETVI (Foxtail, Green); rate 0.1250 kg/ha): 9.0
- AMBEL herbicidal rating (AMBEL (Ragweed, Common); rate 0.0158 kg/ha): 4.0
- AMBEL herbicidal rating (AMBEL (Ragweed, Common); rate 0.0313 kg/ha): 9.0
- AMBEL herbicidal rating (AMBEL (Ragweed, Common); rate 0.0625 kg/ha): 9.0
- AMBEL herbicidal rating (AMBEL (Ragweed, Common); rate 0.1250 kg/ha): 9.0
- ORYSAT herbicidal rating (ORYSAT (Rice, Tebonnet); rate 0.0158 kg/ha): 1.0
- ORYSAT herbicidal rating (ORYSAT (Rice, Tebonnet); rate 0.0313 kg/ha): 4.0
- ORYSAT herbicidal rating (ORYSAT (Rice, Tebonnet); rate 0.0625 kg/ha): 6.5
- ORYSAT herbicidal rating (ORYSAT (Rice, Tebonnet); rate 0.1250 kg/ha): 8.0
- SAGPY herbicidal effect rating ([4]; 0.0313 kg/ha): 4.0
- SAGPY herbicidal effect rating ([4]; 0.0625 kg/ha): 5.0
- SAGPY herbicidal effect rating ([4]; 0.1250 kg/ha): 9.0
- SAGPY herbicidal effect rating ([4]; 0.2500 kg/ha): 9.0
- GALAP herbicidal rating (GALAP (Galium) [5]; rate 0.0158 kg/ha): 3.0
- GALAP herbicidal rating (GALAP (Galium) [5]; rate 0.0313 kg/ha): 4.0
- GALAP herbicidal rating (GALAP (Galium) [5]; rate 0.0625 kg/ha): 5.0
- GALAP herbicidal rating (GALAP (Galium) [5]; rate 0.1250 kg/ha): 9.0
- GALAP rating (GALAP (Galium) [6]; 0.0156 kg/ha): 0.0
- GALAP rating (GALAP (Galium) [6]; 0.0313 kg/ha): 0.0
- GALAP rating (GALAP (Galium) [6]; 0.0625 kg/ha): 0.0
- GALAP rating (GALAP (Galium) [6]; 0.1250 kg/ha): 4.5
- GALAP rating (GALAP (Galium) [6]; 0.2500 kg/ha): 8.5
- GALAP rating (GALAP (Galium) [6]; 0.5000 kg/ha): 9.0
- CASOB rating (CASOB (Sicklepod) [7]; 0.0156 kg/ha): 0.0
- CASOB rating (CASOB (Sicklepod) [7]; 0.0313 kg/ha): 0.0
- CASOB rating (CASOB (Sicklepod) [7]; 0.0625 kg/ha): 0.0
- CASOB rating (CASOB (Sicklepod) [7]; 0.1250 kg/ha): 3.0
- CASOB rating (CASOB (Sicklepod) [7]; 0.2500 kg/ha): 6.0
- CASOB rating (CASOB (Sicklepod) [7]; 0.5000 kg/ha): 9.0
- ZEAMX rating (ZEAMX (Corn, Field); 0.0156 kg/ha): 0.0
- ZEAMX rating (ZEAMX (Corn, Field); 0.0313 kg/ha): 0.0
- ZEAMX rating (ZEAMX (Corn, Field); 0.0625 kg/ha): 1.0
- ZEAMX rating (ZEAMX (Corn, Field); 0.1250 kg/ha): 6.5
- ZEAMX rating (ZEAMX (Corn, Field); 0.2500 kg/ha): 7.5
- ZEAMX rating (ZEAMX (Corn, Field); 0.5000 kg/ha): 9.0
- CASOB herbicidal rating (CASOB (Sicklepod) [8]; rate 0.0158 kg/ha): 0.0
- CASOB herbicidal rating (CASOB (Sicklepod) [8]; rate 0.0313 kg/ha): 6.0
- CASOB herbicidal rating (CASOB (Sicklepod) [8]; rate 0.0625 kg/ha): 9.0
- CASOB herbicidal rating (CASOB (Sicklepod) [8]; rate 0.1250 kg/ha): 9.0
- ECHCG herbicidal rating (ECHCG (Barnyardgrass); rate 0.0158 kg/ha): 2.0
- ECHCG herbicidal rating (ECHCG (Barnyardgrass); rate 0.0313 kg/ha): 9.0
- ECHCG herbicidal rating (ECHCG (Barnyardgrass); rate 0.0625 kg/ha): 9.0
- ECHCG herbicidal rating (ECHCG (Barnyardgrass); rate 0.1250 kg/ha): 9.0
- CYPSE herbicidal effect rating (CYPSE (Flatsedge) [9]; 0.0313 kg/ha): 0.0
- CYPSE herbicidal effect rating (CYPSE (Flatsedge) [9]; 0.0625 kg/ha): 0.0
- CYPSE herbicidal effect rating (CYPSE (Flatsedge) [9]; 0.1250 kg/ha): 4.0
- CYPSE herbicidal effect rating (CYPSE (Flatsedge) [9]; 0.2500 kg/ha): 6.0
